In the assay the test system is SARS-CoV-2 (WT, D614G). Format: cell-based. The note with it: 50 µM.

As to alpha-1-antitrypsin [A1AT], the “inhibition of SARS-CoV-2 replication / infection” value came to 45%.
